Measured values published in the supplement of paper PMC8882468.
± gives the standard deviation of the averaged measurements.

Columns and labels:
Assay in all cases: CTG-3D luminescence at 96 h relative to day-0 seeding control (ratio to day 0); higher = more growth / less cytotoxicity; PDxO 3D drug screen, 96 h, CTG-3D normalised to day-0 seeding control.
HCI-017.E2 = test system: HCI-017.E2 (organoid from an ER-positive breast cancer xenograft)
HCI-002 = test system: HCI-002 (organoid from a triple-negative breast cancer xenograft)
HCI-023 = test system: HCI-023 (organoid from a triple-negative breast cancer xenograft)
HCI-001 = test system: HCI-001 (organoid from a triple-negative breast cancer xenograft)
MDA-MB-231 = test system: MDA-MB-231

CC[C@H](NC(=O)[C@H](C)NC)C(=O)N1C[C@@H](O)C[C@H]1Cc1c(-c2[nH]c3cc(F)ccc3c2C[C@@H]2C[C@H](O)CN2C(=O)[C@H](CC)NC(=O)[C@H](C)NC)[nH]c2cc(F)ccc12 [birinapant]
CTG-3D luminescence at 96 h
Details | 12.5 pM | 0.00025 µM | 0.005 µM | 0.1 µM | 1 µM | 10 µM | 100 µM | 625 fM
HCI-017.E2 | 1.76 ± 0.14 | 2.26 ± 0.1 | 2.2 ± 0.28 | 2.01 ± 0.16 | 2.21 ± 0.09 | 2.12 ± 0.028 | 1.51 ± 0.092 | 2.35 ± 0.26
MDA-MB-231 | 4.36 ± 1.2 | 4.2 ± 1.2 | 4.35 ± 1.2 | 1.96 ± 1.1 | 2 ± 1.3 | 2.03 ± 1.1 | 2.41 ± 0.96 | 4.39 ± 1.2

CTG-3D luminescence at 96 h
Details | 12.5 pM | 0.00025 µM | 0.005 µM | 0.1 µM | 1 µM | 10 µM | 100 µM | 625 fM
HCI-001, days in culture: 240 | 1.73 | 1.11 | 0.766 | 1.19 | 1.35 | 0.911 | 0.0991 | 1.19
HCI-001, days in culture: 260 | 2.4 | 0.757 | 1.95 | 1.48 | 1.34 | 1.44 | 0.312 | 1.51
HCI-001, days in culture: 269 | 1.5 | 1.67 | 1.54 | 1.87 | 1.68 | 2.3 | -0.0177 | 1.65
HCI-001, days in culture: 327 | 1.48 | 1.44 | 1.63 | 1.67 | 1.34 | 1.26 | 0.695 | 1.57
HCI-001, days in culture: 346 | 1.48 | 1.48 | 1.12 | 1.08 | 1.35 | 1.42 | 1.37 | 1.14
HCI-001, days in culture: 364 | 1.38 | 1.05 | 1.4 | 1.27 | 1.07 | 1.32 | 1.04 | 1.5
HCI-002, days in culture: 62 | 3.08 | 2.09 | 2.65 | 1.51 | 1.03 | 0.891 | 0.234 | 2.96
HCI-002, days in culture: 82 | 3 | 2.82 | 1.96 | 1.59 | 0.689 | 0.62 | 0.148 | 3.06
HCI-002, days in culture: 91 | 4.14 | 3.62 | 3.4 | 2.64 | 1.62 | 1.38 | 0.408 | 4.22
HCI-002, days in culture: 191 | 2.67 | 2.28 | 2.58 | 1.73 | 1.31 | 0.959 | 0.188 | 2.59
HCI-002, days in culture: 209 | 2.21 | 2.16 | 1.88 | 0.886 | 0.527 | 0.44 | 0.127 | 2.18
HCI-002, days in culture: 227 | 6.23 | 5.92 | 5.21 | 2.45 | 1.39 | 1.41 | -0.1 | 6.13
HCI-017.E2, days in culture: 85 | 3.2 | 2.88 | 2.45 | 2.38 | 2.5 | 1.82 | 1.64 | 2.6
HCI-023, days in culture: 111 | 1.31 | 0.929 | 0.368 | 0.0512 | 0.0433 | 0.0326 | 0.0111 | 1.35
HCI-023, days in culture: 128 | 1.21 ± 0.27 | 1.13 ± 0.3 | 0.23 ± 0.029 | 0.0897 ± 0.023 | 0.044 ± 0.011 | 0.0472 ± 0.011 | 0.006598 ± 1.9e-05 | 1.75 ± 0.32
